“Also recorded” adds a separate entry of the source. Where no end group is shown, it is not given here.
Experiments:
[1] = system: C. sojina Cs350 (fungicide resistant); assay: Peptide-fungicide checkerboard assay; format: cell-based, Cercospora sojina; settings: pair azoxystrobin / NCR13_PFV1; Cs350; 4 d; SHAM 60 µg ml–1; microscopy
Protocol: Synergy between NCR13_PFV1 and the widely used QoI foliar fungicides, azoxystrobin (Sigma-Aldrich, Cat No: 31697), trifloxystrobin (Sigma-Aldrich, Cat No: 46447), and pyraclostrobin (Sigma-Aldrich, Cat No: 33696), were evaluated using checkerboard assays. This assay was performed in a 96-well plate and the preparation of conidial suspension, peptide dilutions, and fungicide dilutions were similar to the in vitro antifungal activity assay described above. The presence of an alternative respiration pathway allows some fungi including C. sojina to germinate even in the presence of a high dose of QoI fungicides in vitro ([Ziogas et al., 1997]; [Zhang et al., 2012]). Therefore, to prevent alternative respiration in C. sojina, salicylhydroxamic acid (SHAM) was added in each reaction at the final concentration of 60 µg ml^–1 ([Zhang et al., 2012]). The conidia, peptide, fungicide, and SHAM were added in a 96-well plate at the v/v ratio of 4:1:1:2 (50 µl:12.5 µl:12.5 µl:25 µl) in the final reaction volume of 100 µl, and the plate was incubated at room temperature for 96 h (4 d). After 96 h, MIC values of the peptide–fungicide combination, peptide alone, and fungicide alone were calculated based on microscopy as well as the resazurin cell viability assay. The fractional inhibitory concentration (FIC) index was calculated using the formula FIC = (MICA+B/MICA) + (MICB+A/MICB), where MICA and MICB are the MIC for peptide (A) alone and fungicide (B) alone, respectively, MICA+B is the MIC for peptide in combination with fungicide (A+B), and MICB+A is the MIC for fungicide in combination with peptide (B+A). The FIC index was interpreted as: synergistic, ≤0.5; additive, >0.5–1.0; indifferent, >1 to <4.0; or antagonistic, ≥4.0.

[2] = system: fungicide-sensitive and -resistant isolates of C. sojina; assay: In vitro antifungal activity assay (MIC stated across isolates); format: cell-based, Cercospora sojina; settings: range over Cs320 and Cs350; 48 h
Protocol: In vitro antifungal activity of AFPs and QoI fungicides was determined using 96-well plate assays as described ([Velivelli et al., 2020]) with slight modifications. Briefly, 2- to 3-week-old C. sojina was used to make a conidial suspension in 2× SFM at the final concentration of ∼10^5 conidia ml^−1. Simultaneously, peptide dilutions (in water) at various concentrations were made. Fungicides were dissolved in 50% acetone and 50% water to make a stock solution of 500 µM, and serial dilutions were made in water as needed. The peptide–conidia or the fungicide–conidia mixture at the ratio of 1:1 (45 µl:45 µl) was added in a 96-well plate and incubated at room temperature for 48 h, after which MICs of the peptides/fungicides were calculated based on microscopy as well as the resazurin cell viability assay ([Velivelli et al., 2020]).

[3] = system: azoxystrobin-resistant C. sojina Cs350 conidia; assay: Cell death detection assay (propidium iodide, confocal microscopy); format: cell-based, Cercospora sojina; settings: NCR13_PFV1 1.5 μM alone; within 1 h; PI staining; n=3
Protocol: The fungicidal activity of azoxystrobin and peptide NCR13_PFV1 in azoxystrobin-resistant C. sojina Cs350 was analyzed by visualizing the influx of a cell death indicator dye propidium iodide (PI) using time-lapse confocal microscopy. The C. sojina conidia were treated with various concentrations of azoxystrobin, NCR13_PFV1, azoxystrobin plus NCR13_PFV1, or water and 0.5 μg ml^–1 PI, and were observed under confocal microscopy at an excitation and emission wavelength of 500 nm and 545–690 nm, respectively. Z-stacks at each time point were acquired using a ×63 water immersion objective lens (HC PL Apochromat CS2). For each sample, the number of live and dead cells after 1 h of peptide, fungicide, or combination treatment was determined.

[4] = system: B. cinerea; settings: ref Godwin et al., 2024; cited from earlier work
From the text: The cysteine-rich defensins are the best characterized class of plant AFPs for their antifungal activity and multi-faceted MoAs. Many fungal pathogens internalize defensins and defensin-derived peptides in vitro, making them promising candidates for development as bio-fungicides to protect crops. For example, a well-characterized plant defensin MtDef4 and the 17 amino acid γ-core peptide GMA4CG_V6 peptide derived from this defensin are internalized by the necrotrophic pathogen Botrytis cinerea in vitro and robustly reduce gray mold symptoms when sprayed on tomato plants ([Tetorya et al., 2023] ...

[5] = system: C. sojina Cs350 cells; assay: Uptake and subcellular localization by time-lapse confocal microscopy; format: cell-based, Cercospora sojina; settings: DyLight550-labeled peptide; nuclear localization mostly at 0.75 μM (0.5× MIC); Hoechst, CMAC and BODIPY co-staining
Protocol: NCR13_PFV1 was labeled with DyLight550 amine-reactive dye following the manufacturer’s instructions (Thermo Scientific), and time-lapse confocal microscopy was performed to measure the uptake and subcellular localization of the peptide in C. sojina Cs350 cells. The nuclear staining dye Hoechst 3352 was used along with DyLight550-NCR13_PFV1 to determine the subcellular localization of NCR13_PFV1 in C. sojina. Conidia grown for 6–8 h were treated with 0.75 µM Dylight550-NCR13_PFV1 and incubated for 30 min, after which 4 µM Hoechst 3352 dye was added for another 15 min. Treated conidia were used to capture z-stacks at specific time intervals using a Leica SP8-X confocal microscope (×63 water immersion objective lens, HC PL Apochromat CS2) in fluorescence and transmitted light mode. The excitation and emission wavelengths of DyLight550-NCR13_PFV1 and Hoechst 3352 were 550 nm, 560–660 nm, and 405 nm, 420–500 nm, respectively. Similarly, to determine the subcellular localization of NCR13_PFV1 in other organelles, C. sojina conidia were also stained with the vacuole-specific dye CMAC and the lipid staining dye BODIPY 493/503 (Thermo Scientific). The excitation and emission wavelengths for CMAC and BODIPY were 405 nm, 420–500 nm, and 493 nm, 505–540 nm, respectively.

In the case of “TKPCQSDKDCKKFACRKPKVPKCINGFCKCVR (disulfide (positions not given here)) [NCR13_PFV1, chickpea nodule-specific cysteine-rich 32 amino acid peptide, disulfide cross-linking variant 1, expressed in Pichia pastoris]”, the “Combination MIC” value [1] is reported as 0.75 µM, the “MIC against fungicide-sensitive and -resistant isolates of C. sojina” value [2] is reported as 0.75 to 1.5 µM and the cell death [3] is reported as 57%. For the same sequence, the “fold more potent antifungal activity than NCR13_PFV2 against B. cinerea” value [4] was 2 fold and the subcellular localization [5] was “localized to the nucleus; also recorded: no evidence of co-localization of the peptide with either lipid bodies or the vacuole”.

Reference: PMC13672995, “NCR13 peptide protects soybean against Cercospora sojina using multi-faceted modes of action and additive interaction with chemical fungicides” (Journal of Experimental Botany, 2025)
